From PubChem BioAssay AID1996
Values after ≈ are worked out from the molar mass of the structure shown.

Conditions: buffer; pH 7.4; 200.0 µM

SMILES	solubility kinetic [µg/mL]
Cc1ccc(S(=O)(=O)N(C)c2ccc(OC(=O)c3cc(=O)[nH]c4ccccc34)cc2)cc1	2.7 (≈ 6.02 µM)
OCc1ccnc2oc3ccccc3c12	28.8 (≈ 145 µM)
Cn1c(=O)[nH]c(=O)c2c1nc(NCCN)n2CCOc1ccccc1	49.1 (≈ 143 µM)
COCCN(C(=O)CSc1ccc2c(c1)OCCO2)c1c(N)n(CC(C)C)c(=O)[nH]c1=O	> 69.7
O=C(/C=C/c1ccccc1)NCc1ccco1	> 34.1
CC(C)(C)NC(=O)NCc1ccco1	> 29.4
O=C(COC(=O)C1(c2ccccc2F)CCCC1)N1CCNC1=O	> 50.2
Cc1cc(NC(=O)C(=O)c2cn(C)c3ccccc23)no1	0.6 (≈ 2.12 µM)
Cc1cc(C(=O)OCC(=O)NCc2cccs2)ccc1[N+](=O)[O-]	4.8 (≈ 14.4 µM)
CC(C)c1ccc(/C=C/c2[nH]c(=O)[nH]c(=O)c2[N+](=O)[O-])cc1	19.3 (≈ 64.1 µM)
Cc1nc2c(Cl)cccc2c2c1CC(CBr)O2 (stereo not given)	12.5 (≈ 40 µM)
CC(=O)N1CCN(CC(=O)Nc2sccc2C#N)CC1	39 (≈ 133 µM)
O=C(COC(=O)c1ccccc1Br)NC(=O)NCc1ccccc1	5.1 (≈ 13 µM)
Nc1ccc(NC(=O)c2cccs2)cc1	> 32.7
CCCN(Cc1ccco1)S(=O)(=O)c1ccc(OC)c(OC)c1	41.3 (≈ 122 µM)
O=C(COC(=O)c1cccnc1Cl)NC1CCCCC1	> 44.5
Cc1ccc2nc(COc3ccc(Cl)cc3)cc(=O)n2c1	0.5 (≈ 1.66 µM)
COC(=O)c1scc(C)c1NC(=O)c1ccc(Cl)cc1	21.3 (≈ 68.8 µM)
O=C(Nc1ccc(Cl)cc1)C(Cl)C(=O)c1ccccc1 (stereo not given)	11.8 (≈ 38.3 µM)
O=[N+]([O-])c1ccc2ccn(C3OCC(O)C(O)C3O)c2c1 (stereo not given)	> 44.1
Cc1ccc(C)c(NC(=O)C2CCCC2)c1	> 32.6
O=C(c1ccc(-n2cccc2)cc1)N1CCCCC1	> 38.1
Cc1ccc(C(=O)OC(C)CN2CCN(C)CC2)cc1.Cl (stereo not given)	40.8
Cc1ccc(/C=C/C(=O)NC2CCS(=O)(=O)C2)cc1 (stereo not given)	40.2 (≈ 144 µM)

SMILES	solubility kinetic [µg/mL]
C/C(=C\c1cccc(Cl)c1Cl)C(=O)c1c(C)cc(C)[nH]c1=O	3.5 (≈ 10.4 µM)
O=C1C2C3C=CC(CC3)C2C(=O)N1c1cccc(Br)c1 (stereo not given)	2 (≈ 6.02 µM)
COc1ccc(N(CC2CO2)S(=O)(=O)c2ccc(C)cc2)cc1 (stereo not given)	49 (≈ 147 µM)
Cc1cccc(N2C(=O)/C(=C/N3CCN(C(=O)c4ccco4)CC3)C(=O)NC2=S)c1	2.6 (≈ 6.13 µM)
COc1ccccc1-n1c(/C=C/c2ccccn2)nc2ccccc2c1=O	7.3 (≈ 20.5 µM)
O=C(CN1C(=O)c2ccccc2C1=O)NCc1ccc(F)cc1	6.5 (≈ 20.8 µM)
COc1ccc(COC(=O)CNC(=O)C2CCCCC2)cc1F	18.4 (≈ 56.9 µM)
Cc1ccc(S(=O)(=O)Nc2c(C)cc(C)nc2Cl)cc1	> 46.6
CC1=CSC2=NS(=O)(=O)CCN12	> 30.6
C=CCn1c(CCNC(=O)c2ccco2)nc2ccccc21	> 44.3
COCCNc1nc(N)c([N+](=O)[O-])c(NCc2ccccc2)n1	4.9 (≈ 15.4 µM)
CCCCc1ccc(NC(=S)N2CCN(C(=O)OCC)CC2)cc1	2.2 (≈ 6.29 µM)
Fc1cccc(NCCc2c[nH]c3ccccc23)n1	35.6 (≈ 139 µM)
COc1cccc(N2C(=O)CN(Cc3ccccc3)C2=S)c1	24.9 (≈ 79.7 µM)
Cc1ccc(C(=O)NCC(=O)OC(C)C(=O)Nc2ccccc2[N+](=O)[O-])s1 (stereo not given)	> 58.7
O=C(CNS(=O)(=O)c1ccc(F)c(Cl)c1)N1CCCC1	44.1 (≈ 137 µM)
O=c1nc(SCc2ccc(Cl)cc2)nc(-c2ccccc2)[nH]1	4.5 (≈ 13.6 µM)
Cc1ccc(C(=O)NC2=NCCS2)cc1Cl	3.1 (≈ 12.2 µM)
CCN(CC(=O)N1CCCC1)S(=O)(=O)c1ccc(OC)cc1	44.7 (≈ 137 µM)
CN1CCN(c2ncc(CN3C(=O)c4ccccc4C3=O)s2)CC1	> 51.4
Cc1ccnc(NS(=O)(=O)c2ccc3c(c2)CCO3)c1	10.4 (≈ 35.8 µM)
Cc1ccccc1C(=O)NC(=S)NCc1ccccc1	< 0.3
CCOc1ccccc1NC(=O)c1nc(-c2ccccc2)oc1C	0.9 (≈ 2.79 µM)
CC(C)C(=O)Nc1ccc(N2CCCC2)c(Cl)c1	10.4 (≈ 39 µM)

SMILES	solubility kinetic [µg/mL]
O=C(NC1CCCC1)c1ccccc1OCc1ccccc1	15 (≈ 50.8 µM)
O=C(O)CCC(=NNC(=O)c1cccc(S(=O)(=O)N2CCCCC2)c1)c1ccccc1	> 66.5
Cc1ccc(N2C(=O)C(F)(F)C2c2ccccc2)cc1 (stereo not given)	1 (≈ 3.66 µM)
Cc1nc(=O)c(-c2ccccc2)c(C)n1-c1ccc(Br)cc1	> 53.3
COc1ccc(/C=C/C(=O)NCc2ccccn2)cc1OC	> 44.8
CC(=O)Nc1ccc2c(c1)nc(CCN1CCN(c3ccccn3)CC1)n2C	< 0.1
O=C(c1ccccc1)N1CCN(CCc2ccccc2)CC1	40.7 (≈ 138 µM)
Cc1ccc(NC(=O)c2ccc3c(c2)OCCO3)cc1C	25.8 (≈ 91.1 µM)
CCCCNC(=O)C1CCN(S(=O)(=O)N2CCOCC2)CC1	> 50
Cc1cnc(SCc2cnc(C)nc2N)nc1	> 37.1
Cc1cnc(NC(=O)C2CCC(C(C)(C)C)CC2)s1 (stereo not given)	< 0.3
NC(N)=NC1=NC(=O)C(Cc2ccccc2)S1 (stereo not given)	> 37.2
Cc1ccc2nc(Br)c3c(c2c1)OC(CBr)C3 (stereo not given)	9.7 (≈ 27.2 µM)
CCOc1ccc(NC(=O)c2cccc(NC(=O)c3ccccc3)c2)cc1	0.8 (≈ 2.22 µM)
CN(C)CCN(C(=O)c1ccc2ccccc2c1)c1nc2ccc(F)cc2s1.Cl	30
CCCCNC(=O)C(=O)NCCCn1ccnc1	> 37.8
Cc1nc(C(=O)N2CCCC(Nc3ccc(C)c(C)c3)C2)cs1 (stereo not given)	> 49.4
O=C(CNc1cccc([N+](=O)[O-])c1)NCCCc1ccccc1	8 (≈ 25.5 µM)
O=C(CN1CCOCC1)NN=C(c1ccccc1)c1ccccc1	> 48.5
COc1cc(OC)cc(C(=O)NCCSCc2ccc(Cl)cc2)c1	5.2 (≈ 14.2 µM)
O=C(NCC1CCCO1)c1cccc(NC(=O)c2cccs2)c1 (stereo not given)	> 49.6
CC(NC(=O)CCN1C(=O)c2ccccc2C1=O)c1ccccc1 (stereo not given)	> 48.4
Cc1cccc(NC(=O)c2ccc(S(=O)(=O)N3CCOCC3)cc2)n1	48.2 (≈ 133 µM)
Brc1ccc(CN2CCCCCC2)cc1	12.5 (≈ 46.6 µM)

SMILES	solubility kinetic [µg/mL]
CSc1nc(C)c(C(=O)C[n+]2ccc(C)cc2)cc1C#N.[Br-]	50
CNc1nc(N)c([N+](=O)[O-])c(Nc2ccccc2OC)n1	0.7 (≈ 2.41 µM)
NC(=O)C1CCCN(CC(=O)N2CCN(c3ccccc3)CC2)C1 (stereo not given)	48.4 (≈ 146 µM)
Cc1cccc2c(SCC(N)=O)nc(-c3ccccc3)nc12	< 0.2
CN(C)CCOC(=O)C(c1ccccc1)C1(O)CCCC1.Cl (stereo not given)	> 49.2
Fc1cc2[nH]cnc2cc1Cl	> 25.6
O=C(/C=C/c1ccccc1)NC(=S)Nc1ccccc1	< 0.3
O=C1CN(C(=O)COC(=O)c2ccc(Cl)c(S(=O)(=O)N3CCCCC3)c2)c2ccccc2N1	4.7 (≈ 9.55 µM)
Cc1ccc(NC(=S)NCC(O)c2ccccc2)c(C)c1 (stereo not given)	44.3 (≈ 147 µM)
CSc1cccc(NC(=O)CNS(=O)(=O)c2ccccc2)c1	> 50.5
CC(=O)Nc1ccc(C(=S)NCC2(N(C)C)CCCCC2)cc1	21.1 (≈ 63.3 µM)
Cc1cc(C)nc(SCC(=O)NC2CCCC2)n1	> 39.8
CCOC(=O)c1c(C=O)c2ccccc2n1CC	3.1 (≈ 12.6 µM)
CCCOc1ncnc2c1[nH]c1ccc(C)cc12	0.9 (≈ 3.73 µM)
CCN(CC)S(=O)(=O)c1ccc(OC)c(N)c1	35.1 (≈ 136 µM)
CCCCc1ccc(NC(=S)N2CCN(C)CC2)cc1	> 43.7
Cc1ccc(S(=O)(=O)N[C@H](C(=O)OCC(=O)NC(=O)NCc2ccco2)C(C)C)cc1	> 67.7
O=C(CN1CCc2ccccc2C1)Nc1ccc(F)cc1F	28.5 (≈ 94.3 µM)
Cc1nc2nc(SCC(=O)c3ccccc3)[nH]c2cc1Br	< 0.3
Cc1ccc(C(=O)NCc2ccco2)o1	> 30.8
O=[N+]([O-])c1ccccc1OCCCOc1cccc2cccnc12	18.2 (≈ 56.1 µM)
COc1ccc(C/C(N)=N/OC(=O)c2ccco2)cc1OC	> 45.6
OCC1(CCCc2ccccc2)CCN(C2CCC2)CC1	> 43.1
COc1ccccc1CNCC(c1ccccc1)c1ccccc1	33.6 (≈ 106 µM)

SMILES	solubility kinetic [µg/mL]
C=CCn1c(C(C)(C)C)nc2ccccc21	24.6 (≈ 115 µM)
O=C(c1cc(-c2ccncc2)nc2ccccc12)N1CCN(Cc2ccccc2)CC1	> 61.3
C=CCN1C(=S)N[C@@H]2CS(=O)(=O)C[C@@H]21	> 34.8
CCSC1=N/C(=C\c2ccccc2)C(=O)N1c1ccc(OC)cc1	< 0.4
CCC(=O)N(Cc1cc2cc(OC)ccc2[nH]c1=O)c1ccc(C)cc1	3 (≈ 8.56 µM)
COC(=O)c1ccc(OCC(O)CN2CCOCC2)cc1 (stereo not given)	> 44.3
CCC(C)NC(=O)c1cc(-c2cccs2)nc2ccccc12 (stereo not given)	2.4 (≈ 7.73 µM)
Cc1cc(C(=O)Nc2c(F)cc(F)cc2Br)cs1	25.9 (≈ 78 µM)
Cc1cccc(NC(=O)c2ccc3c(c2)OCCO3)c1	35.5 (≈ 132 µM)
CC(OC(=O)c1ccc([N+](=O)[O-])cc1)C(=O)NCC1CCCCC1 (stereo not given)	5.6 (≈ 16.7 µM)
COc1cccc(/C=C2\NC(=O)NC2=O)c1O	32.6 (≈ 139 µM)
O=c1cc(-c2ccc([N+](=O)[O-])cc2)c2cc3c(cc2[nH]1)OCCO3	0.9 (≈ 2.78 µM)
COc1ccccc1N(CC(=O)Nc1cc(S(=O)(=O)N(C)C)ccc1C)S(=O)(=O)c1cccs1	14.4 (≈ 27.5 µM)
O=C(N1CCOCC1)N1CCc2ccccc21	34.8 (≈ 150 µM)
CCNC(=S)N1CCC(C(=O)c2ccc(Cl)cc2)CC1	> 46.6
COC(=O)c1ccc(NC(=O)C(=O)c2c[nH]c3ccccc23)cc1	< 0.3
CCCCCOc1ccccc1C(=O)NCCCCCC(=O)O	> 48.2
Cc1cccc2sc(NS(=O)(=O)c3ccccc3)nc12	> 45.7
O=C(NC1CCCCC1)N1CCN(c2ccc(Cl)cc2)CC1	19.6 (≈ 60.9 µM)
Cc1ccc(NC(=S)NCCCN2CCOCC2)cc1C	> 46.1
COc1ccccc1CCC(=O)Oc1ccccc1C#N	16.6 (≈ 59 µM)
CCCCN1C(=O)c2ccc(C(=O)OCC(=O)NCCc3ccc(S(N)(=O)=O)cc3)cc2C1=O	42.1 (≈ 86.4 µM)
Cc1cc(C=O)c(C)n1-c1ccc(NC2CCCC2)c([N+](=O)[O-])c1	5.1 (≈ 15.6 µM)
O=S(=O)(c1ccc(Cl)nc1)N1CCCCC1	> 39.1
